Source: PubChem BioAssay AID248 (DTP/NCI, 2004)
Values joined by “and” are separate entries in the source; they are usually repeats but may differ in a detail not shown here. Equal entries are not always repeated. Toxic doses and inconclusive results are not listed. Cut-off read from the data, not from the text of the source: active = T/C of 150% or more; inactive = T/C below 125%.

System: L1210 leukemia ip in BDF1 mice, survival T/C
Experiment: NCI In Vivo Anticancer Drug Screen. Data for tumor model L1210 Leukemia (intraperitoneal) in B6D2F1 (BDF1) mice
Conditions: endpoint: mean survival time, higher = longer survival
Outline: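 Transplantable tumor model; survival measured in treated vs vehicle control mice. Value = treated/control.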

[1] = dose: 100.0 mg/kg/injection, schedule: Q01DX009 (ip), vehicle: saline
[2] = dose: 200.0 mg/kg/injection, schedule: Q01DX009 (ip), vehicle: saline
[3] = dose: 400.0 mg/kg/injection, schedule: Q01DX009 (ip), vehicle: saline
[4] = dose: 100.0 mg/kg/injection, schedule: Q04DX003 (ip), vehicle: saline with Tween-80
[5] = dose: 200.0 mg/kg/injection, schedule: Q04DX003 (ip), vehicle: saline with Tween-80
[6] = dose: 400.0 mg/kg/injection, schedule: Q04DX003 (ip), vehicle: saline with Tween-80
[7] = dose: 25.0 mg/kg/injection, schedule: Q01DX009 (ip), vehicle: saline with Tween-80
[8] = dose: 50.0 mg/kg/injection, schedule: Q01DX009 (ip), vehicle: saline with Tween-80
[9] = dose: 50.0 mg/kg/injection, schedule: Q04DX003 (ip), vehicle: saline with Tween-80

Measured: T/C

CCOC(=O)c1[nH]c(C)c(C(=O)OCc2ccccc2)c1CCC(=O)O
inactive: dose: 75.0 mg/kg/injection, schedule: Q01DX001 (ip), vehicle: saline with Tween-80 92 % of control | dose: 150.0 mg/kg/injection, schedule: Q01DX001 (ip), vehicle: saline with Tween-80 97 % of control | dose: 300.0 mg/kg/injection, schedule: Q01DX001 (ip), vehicle: saline with Tween-80 100 % of control

O=S(=O)(O)c1ccc2c(ccc3ccccc32)c1
inactive: dose: 75.0 mg/kg/injection, schedule: Q01DX001 (ip), vehicle: saline 96 % of control

CCOC(=O)Cc1cc(OC)c(OC)c(OC)c1
inactive: dose: 100.0 mg/kg/injection, schedule: Q04DX003 (ip), vehicle: acetone 98 % of control | dose: 200.0 mg/kg/injection, schedule: Q04DX003 (ip), vehicle: acetone 94 % of control

CC1=CC(=O)C(=O)C=C1O
inactive: dose: 50.0 mg/kg/injection, schedule: Q01DX001 (ip), vehicle: water 103 % of control | dose: 100.0 mg/kg/injection, schedule: Q01DX001 (ip), vehicle: water 113 % of control | dose: 200.0 mg/kg/injection, schedule: Q01DX001 (ip), vehicle: water 108 % of control | dose: 400.0 mg/kg/injection, schedule: Q01DX001 (ip), vehicle: water 110 % of control

CCCCC(=O)N(CCCC)CCCC
inactive: dose: 100.0 mg/kg/injection, schedule: Q04DX002 (ip), vehicle: saline 107 % of control | dose: 200.0 mg/kg/injection, schedule: Q04DX002 (ip), vehicle: saline 114 % of control | dose: 400.0 mg/kg/injection, schedule: Q04DX002 (ip), vehicle: saline 93 % of control

c1ccc(C2C(c3ccccc3)N2C23CC4CC(CC(C4)C2)C3)cc1 (stereo not given)
inactive: dose: 100.0 mg/kg/injection, schedule: Q04DX003 (ip), vehicle: Klucel (hydroxypropylcellulose) (HPC) 88 % of control | dose: 200.0 mg/kg/injection, schedule: Q04DX003 (ip), vehicle: Klucel (hydroxypropylcellulose) (HPC) 94 % of control

CCOC(=O)Nc1cc(N)cc(NC(=O)OCC)c1
inactive: dose: 50.0 mg/kg/injection, schedule: Q01DX009 (ip), vehicle: Klucel (hydroxypropylcellulose) (HPC) 101 % of control | dose: 100.0 mg/kg/injection, schedule: Q01DX009 (ip), vehicle: Klucel (hydroxypropylcellulose) (HPC) 104 % of control | dose: 200.0 mg/kg/injection, schedule: Q01DX009 (ip), vehicle: Klucel (hydroxypropylcellulose) (HPC) 106 % of control

CCCC[N+](C)(CCCC)CC(O)c1cc(-c2ccc(Cl)cc2)nc2c(Cl)cc(Cl)cc12 (stereo not given)
inactive: dose: 12.5 mg/kg/injection, schedule: Q04DX003 (ip), vehicle: saline 102 % of control

CC(CC(=O)c1ccc(F)cc1)N1CCN(c2ccccc2)CC1 (stereo not given)
inactive: dose: 100.0 mg/kg/injection, schedule: Q01DX001 (ip), vehicle: carboxymethylcellulose (CMC) 103 % of control | dose: 200.0 mg/kg/injection, schedule: Q01DX001 (ip), vehicle: carboxymethylcellulose (CMC) 90 % of control | dose: 400.0 mg/kg/injection, schedule: Q01DX001 (ip), vehicle: carboxymethylcellulose (CMC) 90 % of control

CC(C=C1CCCCC1)C(=O)O (stereo not given)
inactive: [1] 95 % of control | dose: 100.0 mg/kg/injection, schedule: Q04DX003 (ip), vehicle: saline 102 % of control | [2] 105 % of control | dose: 200.0 mg/kg/injection, schedule: Q04DX003 (ip), vehicle: saline 102 % of control | [3] 97 % of control | dose: 400.0 mg/kg/injection, schedule: Q04DX003 (ip), vehicle: saline 105 % of control

CC(Br)C(=O)NC(Cc1ccccc1)C(=O)O (stereo not given)
inactive: dose: 100.0 mg/kg/injection, schedule: Q01DX009 (ip), vehicle: alcohol 93 % of control | dose: 100.0 mg/kg/injection, schedule: Q04DX003 (ip), vehicle: other 104 % of control | [4] 94 % of control | dose: 200.0 mg/kg/injection, schedule: Q01DX009 (ip), vehicle: alcohol 100 % of control | dose: 200.0 mg/kg/injection, schedule: Q04DX003 (ip), vehicle: other 104 % of control and 88 % of control | [5] 96 % of control | dose: 400.0 mg/kg/injection, schedule: Q01DX009 (ip), vehicle: alcohol 90 % of control | dose: 400.0 mg/kg/injection, schedule: Q04DX003 (ip), vehicle: other 92 % of control and 88 % of control | [6] 91 % of control

Clc1nc(SC2=NCCN2)c2[nH]cnc2n1
inactive: dose: 10.0 mg/kg/injection, schedule: Q01DX009 (ip), vehicle: saline with Tween-80 108 % of control | dose: 12.5 mg/kg/injection, schedule: Q01DX009 (ip), vehicle: saline with Tween-80 102 % of control | dose: 12.5 mg/kg/injection, schedule: Q04DX003 (ip), vehicle: saline with Tween-80 106 % of control | dose: 20.0 mg/kg/injection, schedule: Q01DX009 (ip), vehicle: saline with Tween-80 101 % of control | [7] 104 % of control | dose: 25.0 mg/kg/injection, schedule: Q04DX003 (ip), vehicle: saline with Tween-80 106 % of control | dose: 40.0 mg/kg/injection, schedule: Q01DX009 (ip), vehicle: saline with Tween-80 100 % of control | [8] 113 % of control | [9] 107 % of control

NC(=O)c1cc([N+](=O)[O-])ccc1Cl
inactive: [4] 97 % of control | [5] 97 % of control | [6] 101 % of control

CCCCC(=O)Nc1cccc(O)c1
inactive: dose: 100.0 mg/kg/injection, schedule: Q01DX009 (ip), vehicle: saline with Tween-80 90 % of control | dose: 200.0 mg/kg/injection, schedule: Q01DX009 (ip), vehicle: saline with Tween-80 93 % of control | dose: 400.0 mg/kg/injection, schedule: Q01DX009 (ip), vehicle: saline with Tween-80 107 % of control

O=C(/C=C(\Br)c1ccccc1)c1ccccc1
inactive: dose: 25.0 mg/kg/injection, schedule: Q01DX005 (ip), vehicle: saline with Tween-80 93 % of control | [7] 88 % of control | dose: 25.0 mg/kg/injection, schedule: Q04DX002 (ip), vehicle: saline with Tween-80 102 % of control | dose: 50.0 mg/kg/injection, schedule: Q01DX005 (ip), vehicle: saline with Tween-80 97 % of control | [8] 98 % of control | dose: 50.0 mg/kg/injection, schedule: Q04DX002 (ip), vehicle: saline with Tween-80 109 % of control | dose: 100.0 mg/kg/injection, schedule: Q01DX005 (ip), vehicle: saline with Tween-80 108 % of control | dose: 100.0 mg/kg/injection, schedule: Q04DX002 (ip), vehicle: saline with Tween-80 91 % of control

CC(=O)CC(=O)n1c(=O)cc(C)c2ccccc21
inactive: dose: 75.0 mg/kg/injection, schedule: Q04DX003 (ip), vehicle: saline with Tween-80 117 % of control | dose: 150.0 mg/kg/injection, schedule: Q04DX003 (ip), vehicle: saline with Tween-80 98 % of control | dose: 300.0 mg/kg/injection, schedule: Q04DX003 (ip), vehicle: saline with Tween-80 98 % of control

II
inactive: dose: 12.0 mg/kg/injection, schedule: Q01DX009 (ip), vehicle: acetone 96 % of control | dose: 25.0 mg/kg/injection, schedule: Q01DX009 (ip), vehicle: acetone 93 % of control | dose: 50.0 mg/kg/injection, schedule: Q01DX009 (ip), vehicle: acetone 106 % of control

CN=C(NC)c1ccc(NC(=O)c2ccc(C(=O)Nc3ccc(C(=NC)NC)c(OC)c3)c(Cl)c2)cc1OC
inactive: dose: 1.26 mg/kg/injection, schedule: Q01DX Z (ip), vehicle: saline 98 % of control

C#CC1(OCC2CO2)CCCCC1 (stereo not given)
inactive: dose: 50.0 mg/kg/injection, schedule: Q01DX009 (ip), vehicle: saline 97 % of control | [9] 100 % of control | [1] 117 % of control | [4] 101 % of control | [2] 101 % of control | [5] 103 % of control | [3] 94 % of control | [6] 100 % of control
